We go through 24 compounds from patent US10988478B1, “Pyrazolo[1,5a]pyrimidine derivatives as IRAK4 modulators” (Genentech, Inc., priority 2015, dated 2021).

For the assay, the target named is human IRAK4 (Homo sapiens (Human), UniProt Q9NWZ3). The assay is described as follows: IRAK4 kinase inhibition, Transcreener fluorescence polarization ADP assay. The note with it: recombinant full-length His6-IRAK4; 125 uM ATP; 90 min; Ki computed using ATP Km 642 uM. The format is biochemical. As to the method: Compounds were assayed for inhibition of human IRAK4 and IRAK1 catalytic activity using recombinant enzyme produced from insect cells. Full-length IRAK4 protein, carrying an N-terminal His6-Tag, was obtained from Life Technologies (Carlsbad, Calif., USA). The IRAK1 construct was produced internally and was comprised of IRAK1 residues Arg194 to Ser712, preceded by an NH2-terminal His6 tag and the coding sequence for glutathione-S-transferase.
Chain of human IRAK4 (Q9NWZ3 whole entry, the tested form may be a part): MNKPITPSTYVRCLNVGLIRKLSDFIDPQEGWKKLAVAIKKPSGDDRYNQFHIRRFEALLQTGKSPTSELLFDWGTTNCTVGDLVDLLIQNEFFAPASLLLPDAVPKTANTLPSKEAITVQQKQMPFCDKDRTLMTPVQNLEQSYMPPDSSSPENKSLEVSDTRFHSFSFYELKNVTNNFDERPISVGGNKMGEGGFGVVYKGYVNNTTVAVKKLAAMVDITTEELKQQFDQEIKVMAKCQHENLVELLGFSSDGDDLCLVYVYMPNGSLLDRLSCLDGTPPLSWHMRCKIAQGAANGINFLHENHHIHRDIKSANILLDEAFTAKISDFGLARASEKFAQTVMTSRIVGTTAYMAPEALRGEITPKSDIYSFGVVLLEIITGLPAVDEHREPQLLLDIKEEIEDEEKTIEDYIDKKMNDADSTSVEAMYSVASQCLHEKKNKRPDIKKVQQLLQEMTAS
`CC(C)(O)[C@H]1CC[C@@H](N2Cc3cc(NC(=O)c4cnn5cccnc45)c(N4CCOCC4)cc3C2=O)CC1` [Example 547, Cis-N-[2-[4-(1-Hydroxy-1-methyl-ethyl)cyclohexyl]-6-morpholino-1-oxo-isoindolin-5-yl]pyrazolo[1,5-a]pyrimidine-3-carboxamide]: the Ki was 38 nM.

For the compound `CC(C)(O)[C@H]1CC[C@H](N2Cc3cc(NC(=O)c4cnn5cccnc45)c(N4CCOCC4)cc3C2=O)CC1` [Example 548, trans-N-[2-[4-(1-Hydroxy-1-methyl-ethyl)cyclohexyl]-6-morpholino-1-oxo-isoindolin-5-yl]pyrazolo[1,5-a]pyrimidine-3-carboxamide], the Ki stood at 2.9 nM.

For the compound `C[C@@H](CN1Cc2cc(NC(=O)c3cnn4cccnc34)c(N3CCOCC3)cc2C1=O)N1CCOCC1` [Example 551, N-[6-morpholino-2-[(2S)-2-morpholinopropyl]-1-oxo-isoindolin-5-yl]pyrazolo[1,5-a]pyrimidine-3-carboxamide], the Ki is 2.9 nM.

`C[C@H](CN1Cc2cc(NC(=O)c3cnn4cccnc34)c(N3CCOCC3)cc2C1=O)N1CCOCC1` [Example 552, N-[6-morpholino-2-[(2R)-2-morpholinopropyl]-1-oxo-isoindolin-5-yl]pyrazolo[1,5-a]pyrimidine-3-carboxamide]: the Ki came to 12 nM.

Take `CN1CC[C@@H](N2Cc3cc(NC(=O)c4cnn5cccnc45)c(N4CCOCC4)cc3C2=O)C1=O` [Example 553, N-[2-[(3R)-1-methyl-2-oxo-pyrrolidin-3-yl]-6-morpholino-1-oxo-isoindolin-5-yl]pyrazolo[1,5-a]pyrimidine-3-carboxamide]: the Ki is 58 nM.

For the compound `CN1CC[C@H](N2Cc3cc(NC(=O)c4cnn5cccnc45)c(N4CCOCC4)cc3C2=O)C1=O` [Example 554, N-[2-[(3S)-1-methyl-2-oxo-pyrrolidin-3-yl]-6-morpholino-1-oxo-isoindolin-5-yl]pyrazolo[1,5-a]pyrimidine-3-carboxamide], the Ki amounted to 14 nM.

As to `O=C(Nc1cc2c(cc1N1CCOCC1)C(=O)N(C[C@H]1CCOC1)C2)c1cnn2cccnc12` [Example 556, N-[6-morpholino-1-oxo-2-[[(3R)-tetrahydrofuran-3-yl]methyl]isoindolin-5-yl]pyrazolo[1,5-a]pyrimidine-3-carboxamide], the Ki was found to be 4.5 nM.

Take `C[C@H](O)[C@H](F)CN1Cc2cc(NC(=O)c3cnn4cccnc34)c(N3CCOCC3)cc2C1=O` [Example 557, N-[2-[(2R,2S)-2-fluoro-3-hydroxy-butyl]-6-morpholino-1-oxo-isoindolin-5-yl]pyrazolo[1,5-a]pyrimidine-3-carboxamide]: the Ki is 7.3 nM.

Regarding `C[C@@H](O)[C@@H](F)CN1Cc2cc(NC(=O)c3cnn4cccnc34)c(N3CCOCC3)cc2C1=O` [Example 558, N-[2-[(2S,3R)-2-fluoro-3-hydroxy-butyl]-6-morpholino-1-oxo-isoindolin-5-yl]pyrazolo[1,5-a]pyrimidine-3-carboxamide], the Ki was determined as 8.4 nM.

Take `O=C(Nc1cc2c(cc1N1CCOCC1)C(=O)N(C[C@@H]1CCC[C@@H]1O)C2)c1cnn2cccnc12` [Example 559, N-[2-[[(1S,2S)-2-hydroxycyclopentyl]methyl]-6-morpholino-1-oxo-isoindolin-5-yl]pyrazolo[1,5-a]pyrimidine-3-carboxamide]: the inhibitory constant (Ki) turned out to be 2.2 nM.

Turning to `O=C(Nc1cc2c(cc1N1CCOCC1)C(=O)N(C[C@H]1CCC[C@H]1O)C2)c1cnn2cccnc12` [Example 560, N-[2-[[(1R,2R)-2-hydroxycyclopentyl]methyl]-6-morpholino-1-oxo-isoindolin-5-yl]pyrazolo[1,5-a]pyrimidine-3-carboxamide], the Ki was determined as 1.6 nM.

As for `C[C@H](O)[C@@H](F)CN1Cc2cc(NC(=O)c3cnn4cccnc34)c(N3CCOCC3)cc2C1=O` [Example 561, N-(2-((2S,3S)-2-fluoro-3-hydroxybutyl)-6-morpholino-1-oxoisoindolin-5-yl)pyrazolo[1,5-a]pyrimidine-3-carboxamide], the Ki was 11 nM.

With `C[C@@H](O)[C@H](F)CN1Cc2cc(NC(=O)c3cnn4cccnc34)c(N3CCOCC3)cc2C1=O` [Example 562, N-(2-((2R,3R)-2-fluoro-3-hydroxybutyl)-6-morpholino-1-oxoisoindolin-5-yl)pyrazolo[1,5-a]pyrimidine-3-carboxamide], the inhibition constant (Ki) came to 1.9 nM.

For `CC(C)(O)[C@H](F)CN1Cc2cc(NC(=O)c3cnn4cccnc34)c(N3CCC3)cc2C1=O` [Example 563, N-[6-(azetidin-1-yl)-2-[(2R)-2-fluoro-3-hydroxy-3-methyl-butyl]-1-oxo-isoindolin-5-yl]pyrazolo[1,5-a]pyrimidine-3-carboxamide], the Ki amounted to 33 nM.

Turning to `O=C(Nc1cc2c(cc1N1CCOCC1)C(=O)N([C@H]1CCC[C@H]1CO)C2)c1cnn2cccnc12` [Example 564, N-(2-((1S,2R)-2-(hydroxymethyl)cyclopentyl)-6-morpholino-1-oxoisoindolin-5-yl)pyrazolo[1,5-a]pyrimidine-3-carboxamide], the Ki turned out to be 28 nM.

Turning to `O=C(Nc1cc2c(cc1N1CCOCC1)C(=O)N([C@@H]1CCC[C@@H]1CO)C2)c1cnn2cccnc12` [Example 565, N-(2-((1R,2S)-2-(hydroxymethyl)cyclopentyl)-6-morpholino-1-oxoisoindolin-5-yl)pyrazolo[1,5-a]pyrimidine-3-carboxamide], the Ki amounted to 94 nM.

For `O=C(Nc1cc2c(cc1N1CCOCC1)C(=O)N([C@H]1CCC[C@@H]1CO)C2)c1cnn2cccnc12` [Example 566, N-(2-((1S,2S)-2-(hydroxymethyl)cyclopentyl)-6-morpholino-1-oxoisoindolin-5-yl)pyrazolo[1,5-a]pyrimidine-3-carboxamide], the Ki is 8 nM.

Turning to `O=C(Nc1cc2c(cc1N1CCOCC1)C(=O)N([C@@H]1CCC[C@H]1CO)C2)c1cnn2cccnc12` [Example 567, N-(2-((1R,2R)-2-(hydroxymethyl)cyclopentyl)-6-morpholino-1-oxoisoindolin-5-yl)pyrazolo[1,5-a]pyrimidine-3-carboxamide], the Ki is 5.9 nM.

On to `CC1(C#N)CCN(c2cc3c(cc2NC(=O)c2cnn4cccnc24)CN(C[C@@H](F)C(C)(C)O)C3=O)CC1` [Example 569, N-[6-(4-Cyano-4-methyl-1-piperidyl)-2-[(2R)-2-fluoro-3-hydroxy-3-methyl-butyl]-1-oxo-isoindolin-5-yl]pyrazolo[1,5-a]pyrimidine-3-carboxamide], for which the Ki stood at 3.1 nM.

For the compound `CN(C)c1cc2c(cc1NC(=O)c1cnn3cccnc13)CN(C[C@@H](F)C(C)(C)O)C2=O` [Example 570, N-[6-(dimethylamino)-2-[(2R)-2-fluoro-3-hydroxy-3-methyl-butyl]-1-oxo-isoindolin-5-yl]pyrazolo[1,5-a]pyrimidine-3-carboxamide], the Ki stood at 0.63 nM.

With “N-(2,2-dimethyl-6-(4-(2-oxo-2-(thiazol-2-ylamino)ethyl)piperazin-1-yl)-2,3-dihydrobenzofuran-5-yl)pyrazolo[1,5-a]pyridine-3-carboxamide [Example 441]”, the Ki amounted to 6 nM.

Consider “N-[2,2-Dimethyl-6-[(5-methyl-1H-pyrazol-3-yl)methoxy]-3H-benzofuran-5-yl]pyrazolo[1,5-a]pyrimidine-3-carboxamide [Example 543]”, for which the Ki amounted to 140 nM.

Regarding “N-[(2R)-6-[4-(2,2-difluoroethyl)piperazin-1-yl]-2-(hydroxymethyl)-2-methyl-3H-benzofuran-5-yl]-6-fluoro-pyrazolo[1,5-a]pyrimidine-3-carboxamide [Example 494]”, the Ki is 40 nM.

Regarding “N-[(2S)-6-[4-(2,2-difluoroethyl)piperazin-1-yl]-2-(hydroxymethyl)-2-methyl-3H-benzofuran-5-yl]-6-fluoro-pyrazolo[1,5-a]pyrimidine-3-carboxamide [Example 495]”, the inhibition constant (Ki) was found to be 17 nM.
